In PubChem BioAssay AID2060891 (Molecular Pharmacology Branch, DTP, NCI, 2025):
Values joined by “and” are separate entries in the source; they are usually repeats but may differ in a detail not shown here. Equal values may be shown once.

Tested on: K98450-129-R-PDC complex spheroid growth, percent test/control
Assay: Anticancer human tumor K98450-129-R-PDC patient-derived colon adenocarcinoma cell line growth inhibition [RAS]
Conditions: for viability, T/C: stronger effect = lower value
Text: RAS pathway inhibitors in Combinations in Complex Spheroids
A high-throughput screen of multi-cell type tumor spheroids was designed to identify active combinations of RAS pathway inhibitors and targeted small molecules. Complex spheroids include a stromal component modeled by human endothelial cells (HUVEC) and fibroblasts modeled by human mesenchymal stem cells (MSCs). The concentration ranges selected for each drug and investigational agent were based upon clinically achievable concentrations if the clinical Cmax of the agent was known.
Compounds. The drugs and investigational agents: abemaciclib (NSC768073), cobimetinib (NSC768068), divarasib (GDC6063, NSC841802), docetaxel (NSC628503), GDC-1971 (RLY-1971, NSC841576), gemcitabine (NSC613327), inavolisib (NSC800729), ipatasertib (NSC767898), KB-0742 (NSC834161), MRTX-1133 (NSC836407), osimertinib (NSC779217), RMC-4630 (NSC839698), RMC-6236 (NSC851965), RMC-6291 (NSC852671), Ro-3306 (NSC812927), sapanisertib (NSC764658), SN-38 (NSC673596), staurosporine (NSC755774), SY5609 (NSC837396), and tovorafenib (DAY101, NSC766906), were obtained from the National Cancer Institute (NCI) Developmental Therapeutics Program Chemical Repository. The FDA-approved anticancer drug set is available from the NCI Developmental Therapeutics Program. […] The stock solutions were prepared in dimethyl sulfoxide (DMSO, Sigma-Aldrich, St. Louis, MO, cat. D2650) at 800-fold the tested concentration and stored at -70 degrees C prior to their use. All drugs and investigational agents were tested over a range starting from a high concentration at or near the clinical Cmax and decreasing in half-log increments. If the clinical Cmax for an agent had not been determined, the highest concentration tested was 10 microM.
Cell Culture. All cells were maintained in an incubator at 37 degrees C and 5% CO2 with 95% humidity. The PDC lines were cultured according to standard operating procedures established by the NCI PDMR. All PDCs were thawed and cultured in Matrigel-coated flasks prepared with a working solution of 1X Ham's F-12 nutrient mix, without supplementation (Invitrogen, Waltham, MA, cat. 11765054), 100 U/mL penicillin-streptomycin (Invitrogen, cat. 15140122), and 2.5% Matrigel (Corning Inc., Corning, NY, cat. 354248) for the first three passages. The 362531-283-R-J2-PDC and 782815-120-R-J1-PDC lines were cultured in 6C/Colon 1B media, which includes advanced DMEM/F-12 (Thermo Fisher Scientific, cat. 12634028), 10 mM HEPES (Thermo Fisher Scientific, cat. 15630080), 1X GlutaMAX supplement (Thermo Fisher Scientific, cat. 35050061), 0.1 mg/mL primocin (InvivoGen, San Diego, CA, cat. ant-pm-2), 10% defined fetal bovine serum, heat inactivated (HyClone Laboratories Inc., Logan, UT, cat. SH30070.03HI), 50% L-WRN conditioned media (ATCC, cat. CRL-3276), 1.25 mM N-Acetyl-L-cysteine (Sigma-Aldrich, cat. A9165), 10 mM nicotinamide (Sigma-Aldrich, cat. N0636), 1X B-27 supplement (Thermo Fisher Scientific, cat. 17504044), 1X N-2 supplement (Thermo Fisher Scientific, cat. 17502048), 50 ng/mL human EGF (Thermo Fisher Scientific, cat. PHG0311), and 10 microM Y-27632 dihydrochloride (Tocris Bioscience, cat. 1254). The K12877-001-R-J1-PDC line was cultured in 6I media, which includes all 6C/Colon 1B media plus 10 ng/mL human FGF-10 (PeproTech, cat. 100-26), 1 ng/mL human FGF-2 (PeproTech, cat. 100-18B), 1 µM prostaglandin E2 (Tocris Bioscience, cat. 2296), […] hydrocortisone (Sigma-Aldrich, cat. H4001), and […] bovine insulin (Sigma-Aldrich, cat. I6634). The K86415-001-R-J1-PDC line was cultured in 6D media, which includes all 6C/Colon 1B media components minus the L-WRN conditioned media. The 485176-168-R4-J1-PDC was cultured in PANC media, which includes all 6C/Colon 1B media plus 100 ng/mL human FGF-10 (PeproTech, cat. 100-26), 500 nM SB-431542 (Selleckchem, cat. S1067), and 10 nM gastrin (Tocris Bioscience, cat. 3006). […]
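Note: spheroids exposed to agents for seven days before the viability readout.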
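Throughout, for viability, T/C: luminescence used as a proxy for viable cell amount.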

Question: Which viability, T/C (compound 0.0316 µM) does the source give for `CC(=O)OC12COC1CC(O)C1(C)C(=O)C(O)C3=C(C)C(OC(=O)C(O)C(NC(=O)OC(C)(C)C)c4ccccc4)CC(O)(C(OC(=O)c4ccccc4)C21)C3(C)C` (stereo unspecified) here?
Answer: 104% [middle of 4 runs]

Question: And the viability, T/C (compound 0.316 µM)?
Answer: 65.8% [middle of 4 runs]

Question: What about the viability, T/C (compound 1 µM) of the same compound?
Answer: 50.8% [middle of 4 runs]

Question: And the viability, T/C (compound 3.16 µM)?
Answer: 42.5% [middle of 4 runs]

Question: And the viability, T/C (compound 10 µM)?
Answer: 43.9% [middle of 4 runs]

Question: For `CC(C)NCC(C(=O)N1CCN(c2ncnc3c2C(C)CC3O)CC1)c1ccc(Cl)cc1` (stereo unspecified), which viability, T/C (compound 0.0316 µM) is on record?
Answer: 103% [middle of 4 runs]

Question: And the viability, T/C (compound 0.1 µM)?
Answer: 97.1% [middle of 4 runs]

Question: And the viability, T/C (compound 0.316 µM)?
Answer: 104% (2×) and 111% and 88.1%

Question: And the viability, T/C (compound 1 µM)?
Answer: 102% [middle of 4 runs]

Question: What about the viability, T/C (compound 3.16 µM) of the same compound?
Answer: 104% [middle of 4 runs]

Question: What about the viability, T/C (compound 10 µM) of the same compound?
Answer: 101% [middle of 4 runs]

Question: What about the IC50 (curve of compound) of the same compound?
Answer: > 10000 nM

Question: What does the source list for `CC1(O)CCCC1n1c(=O)c(C(F)F)cc2cnc(NC3CCN(S(C)(=O)=O)CC3)nc21` (stereo unspecified)?
Answer: viability, T/C (compound 0.0316 µM): 102% (2×) and 99.8% and 90.2%; viability, T/C (compound 0.1 µM): 95.5% [middle of 4 runs]; viability, T/C (compound 0.316 µM): 91.1% [middle of 4 runs]; viability, T/C (compound 1 µM): 79% [middle of 4 runs]; viability, T/C (compound 3.16 µM): 79% [middle of 4 runs]; viability, T/C (compound 10 µM): 73.3% [middle of 4 runs]; IC50 (curve of compound): > 10000 nM

Question: Which results are given for `CCC(CC)c1cc(NC2CCC(N)C2)n2nccc2n1` (stereo unspecified)?
Answer: viability, T/C (compound 0.0316 µM): 99.1% [middle of 4 runs]; viability, T/C (compound 0.316 µM): 99.2% [middle of 4 runs]; viability, T/C (compound 1 µM): 102% (2×) and 98% and 94%; viability, T/C (compound 3.16 µM): 90.9% [middle of 4 runs]; viability, T/C (compound 10 µM): 17.7% [middle of 4 runs]; IC50 (curve of compound): 5.89 µM [middle of 4 runs]

Question: Which viability, T/C (compound 0.0316 µM) does the source give for `C[C@@H](NC(=O)c1ncnc(N)c1Cl)c1ncc(C(=O)Nc2cc(C(F)(F)F)c(Cl)cn2)s1` here?
Answer: 110% [middle of 4 runs]

Question: What about the viability, T/C (compound 0.316 µM) of the same compound?
Answer: 122% [middle of 4 runs]

Question: And the viability, T/C (compound 1 µM)?
Answer: 126% [middle of 4 runs]

Question: What about the viability, T/C (compound 10 µM) of the same compound?
Answer: 106% [middle of 4 runs]

Question: And the IC50 (curve of compound)?
Answer: > 10000 nM

Question: With `Cc1nc(N2CCC3(CC2)COC(C)C3N)c(CO)nc1Sc1ccnc(N)c1Cl` (stereo unspecified) as the compound, how does the viability, T/C (compound 0.0316 µM) read?
Answer: 96.9% [middle of 4 runs]

Question: What about the viability, T/C (compound 0.1 µM) of the same compound?
Answer: 92.8% [middle of 4 runs]

Question: And the viability, T/C (compound 0.316 µM)?
Answer: 86.5% [middle of 4 runs]

Question: And the viability, T/C (compound 1 µM)?
Answer: 77.2% [middle of 4 runs]

Question: What about the viability, T/C (compound 3.16 µM) of the same compound?
Answer: 53.1% [middle of 4 runs]

Question: What about the viability, T/C (compound 10 µM) of the same compound?
Answer: 28.8% [middle of 4 runs]

Question: And the IC50 (curve of compound)?
Answer: 3.66 µM [middle of 4 runs]

Question: What does the source list for `NC1c2ccccc2OC12CCN(c1cnc3c(N4CCCc5ncccc54)n[nH]c3n1)CC2` (stereo unspecified)?
Answer: viability, T/C (compound 0.0316 µM): 90.2% [middle of 4 runs]; viability, T/C (compound 0.1 µM): 67.2% [middle of 4 runs]; viability, T/C (compound 0.316 µM): 39.9% [middle of 4 runs]; viability, T/C (compound 1 µM): 25.4% [middle of 4 runs]; viability, T/C (compound 3.16 µM): 19.4% [middle of 4 runs]; viability, T/C (compound 10 µM): 25% [middle of 4 runs]; IC50 (curve of compound): 193 nM [middle of 4 runs]

Question: How did the IC50 (curve of first compound, second compound 0.0316 µM) turn out when `C=CC(=O)Nc1cc(Nc2nccc(-c3cn(C)c4ccccc34)n2)c(OC)cc1N(C)CCN(C)C` + C#Cc1c(F)ccc2cc(O)cc(-c3ncc4c(N5CC6CCC(C5)N6)nc(OCC56CCCN5CC(F)C6)nc4c3F)c12 was run?
Answer: 622 nM

Question: What about the IC50 (curve of first compound, second compound 0.1 µM) of the same compound?
Answer: 637 nM

Question: And the IC50 (curve of first compound, second compound 0.316 µM)?
Answer: 584 nM

Question: What about the IC50 (curve of first compound, second compound 1 µM) of the same compound?
Answer: 468 nM

Question: What about the IC50 (curve of first compound, second compound 3.16 µM) of the same compound?
Answer: 330 nM

Question: What about the IC50 (curve of first compound, second compound 10 µM) of the same compound?
Answer: 193 nM

Question: What about the viability, T/C (second compound 0.0316 µM, first compound 0.00316 µM) of the same compound?
Answer: 107%

Question: And the viability, T/C (second compound 0.0316 µM, first compound 0.01 µM)?
Answer: 112%

Question: And the viability, T/C (second compound 0.0316 µM, first compound 0.0316 µM)?
Answer: 106%

Question: And the viability, T/C (second compound 0.0316 µM, first compound 0.1 µM)?
Answer: 100%

Question: And the viability, T/C (second compound 0.0316 µM, first compound 0.316 µM)?
Answer: 69.4%

Question: What about the viability, T/C (second compound 0.0316 µM, first compound 1 µM) of the same compound?
Answer: 36.4%

Question: What about the viability, T/C (second compound 0.1 µM, first compound 0.00316 µM) of the same compound?
Answer: 107%

Question: And the viability, T/C (second compound 0.1 µM, first compound 0.01 µM)?
Answer: 100%

Question: And the viability, T/C (second compound 0.1 µM, first compound 0.0316 µM)?
Answer: 103%

Question: And the viability, T/C (second compound 0.1 µM, first compound 0.1 µM)?
Answer: 101%

Question: And the viability, T/C (second compound 0.1 µM, first compound 0.316 µM)?
Answer: 79.6%

Question: What about the viability, T/C (second compound 0.1 µM, first compound 1 µM) of the same compound?
Answer: 30.9%

Question: What about the viability, T/C (second compound 0.316 µM, first compound 0.00316 µM) of the same compound?
Answer: 112%

Question: And the viability, T/C (second compound 0.316 µM, first compound 0.01 µM)?
Answer: 106%

Question: What about the viability, T/C (second compound 0.316 µM, first compound 0.0316 µM) of the same compound?
Answer: 97.9%

Question: What about the viability, T/C (second compound 0.316 µM, first compound 0.1 µM) of the same compound?
Answer: 95.8%

Question: What about the viability, T/C (second compound 0.316 µM, first compound 0.316 µM) of the same compound?
Answer: 78.6%

Question: What about the viability, T/C (second compound 0.316 µM, first compound 1 µM) of the same compound?
Answer: 26%

Question: And the viability, T/C (second compound 1 µM, first compound 0.00316 µM)?
Answer: 105%

Question: What about the viability, T/C (second compound 1 µM, first compound 0.01 µM) of the same compound?
Answer: 105%

Question: And the viability, T/C (second compound 1 µM, first compound 0.0316 µM)?
Answer: 92.6%

Question: And the viability, T/C (second compound 1 µM, first compound 0.1 µM)?
Answer: 95%

Question: What about the viability, T/C (second compound 1 µM, first compound 0.316 µM) of the same compound?
Answer: 66.3%

Question: And the viability, T/C (second compound 1 µM, first compound 1 µM)?
Answer: 16.6%

Question: What about the viability, T/C (second compound 3.16 µM, first compound 0.00316 µM) of the same compound?
Answer: 93.7%

Question: And the viability, T/C (second compound 3.16 µM, first compound 0.01 µM)?
Answer: 94.3%

Question: What about the viability, T/C (second compound 3.16 µM, first compound 0.0316 µM) of the same compound?
Answer: 94.6%

Question: And the viability, T/C (second compound 3.16 µM, first compound 0.1 µM)?
Answer: 89.7%

Question: And the viability, T/C (second compound 3.16 µM, first compound 0.316 µM)?
Answer: 51.5%

Question: What about the viability, T/C (second compound 3.16 µM, first compound 1 µM) of the same compound?
Answer: 11.5%

Question: And the viability, T/C (second compound 10 µM, first compound 0.00316 µM)?
Answer: 91.9%

Question: And the viability, T/C (second compound 10 µM, first compound 0.01 µM)?
Answer: 85.3%

Question: What about the viability, T/C (second compound 10 µM, first compound 0.0316 µM) of the same compound?
Answer: 90.1%

Question: And the viability, T/C (second compound 10 µM, first compound 0.1 µM)?
Answer: 79.3%

Question: What about the viability, T/C (second compound 10 µM, first compound 0.316 µM) of the same compound?
Answer: 28%

Question: What about the viability, T/C (second compound 10 µM, first compound 1 µM) of the same compound?
Answer: 10.6%
